In US20240270762A1, “PENICILLIN-BINDING PROTEIN INHIBITORS” (priority 2021, published 2024):
Values after ≈ are worked out from the molar mass of the structure shown.

What was measured:
[1] = test system: B. humptydooensis ATCC BAA-2767; assay: microbe, parasite or virus in culture; format: cell-based; details: Burkholderia humptydooensis, ATCCBAA2767, read-out: Minimum inhibitory concentration (MIC), B. humptydooensis ATCC BAA-2767
A. baumannii ATCC 17978 = assay: microbe, parasite or virus in culture; format: cell-based; details: Acinetobacter baumannii, ATCC17978, read-out: MIC, A. baumannii ATCC 17978
P. aeruginosa ATCC 35151 = assay: microbe, parasite or virus in culture; format: cell-based; details: Pseudomonas aeruginosa, ATCC35151, read-out: Minimum inhibitory concentration, P. aeruginosa ATCC 35151
[2] = target: T1, PBP3 from Acinetobacter baumannii (ATCC 19606) (Acinetobacter baumannii, UniProt A0ABX6CK25); assay: Bocillin-FL fluorescence polarization competition binding, A. baumannii PBP3; details: fluorescence polarization competition binding assay using Bocillin-FL; read-out: A. baumannii PBP3 Potency
T1 sequence (A0ABX6CK25 64-610): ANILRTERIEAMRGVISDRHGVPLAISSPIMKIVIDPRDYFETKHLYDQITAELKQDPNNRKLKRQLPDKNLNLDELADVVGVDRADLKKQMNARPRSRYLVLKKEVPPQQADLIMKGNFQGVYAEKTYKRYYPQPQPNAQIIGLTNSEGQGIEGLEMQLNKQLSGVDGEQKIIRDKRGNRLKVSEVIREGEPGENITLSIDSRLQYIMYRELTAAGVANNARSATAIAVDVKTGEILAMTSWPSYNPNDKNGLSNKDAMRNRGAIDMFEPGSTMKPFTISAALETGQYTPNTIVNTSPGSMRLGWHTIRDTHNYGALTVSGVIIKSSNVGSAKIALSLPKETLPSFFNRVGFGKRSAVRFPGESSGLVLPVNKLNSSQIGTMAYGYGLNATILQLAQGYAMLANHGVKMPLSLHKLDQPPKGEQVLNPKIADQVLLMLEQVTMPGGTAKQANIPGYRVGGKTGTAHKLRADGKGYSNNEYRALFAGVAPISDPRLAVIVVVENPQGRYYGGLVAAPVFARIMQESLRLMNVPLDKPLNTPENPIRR
Summary of the method: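 Purified PBPs pre-incubated with inhibitor (E. coli PBP3 1.5 μM, 30 min; P. aeruginosa PBP3 0.75 μM, A. baumannii PBP1a 1 μM and PBP3 0.2 μM, 15 min), then Bocillin-FL 0.1 μM (0.05 μM for PBP1a) added; FP read up to 60 min. EC50 = concentration halving bound Bocillin-FL.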

A. baumannii ATCC 19606 = assay: microbe, parasite or virus in culture; format: cell-based; details: Acinetobacter baumannii, ATCC19606, read-out: MIC, A. baumannii ATCC 19606
N. gonorrhoeae WHO M = assay: Liquid broth MIC in Fastidious broth; details: Neisseria gonorrhoeae, read-out: Minimum Inhibitory Concentration, WHO M

| SMILES | MIC [1] [µg/mL] | MIC (A. baumannii ATCC 17978) [µg/mL] | MIC (P. aeruginosa ATCC 35151) [µg/mL] | IC50 [2] [µM] | MIC (A. baumannii ATCC 19606) [µg/mL] | MIC (N. gonorrhoeae WHO M) [µg/mL] |
| --- | --- | --- | --- | --- | --- | --- |
| O=C(NCCS(=O)(=O)N1CCN(C(=O)NC(C(=O)N[C@H]2Cc3ccc(F)c(C(=O)O)c3OB2O)c2cc(F)c(O)c(O)c2Cl)C1=O)Nc1ccc(O)cc1 (stereo partly drawn) [Example 289, (3R)-3-(2-(2-chloro-5-fluoro-3,4-dihydroxyphenyl)-2-(3-((2-(3-(4-hydroxyphenyl)ureido)ethyl)sulfonyl)-2-oxoimidazolidine-1-carboxamido)acetamido)-7-fluoro-2-hydroxy-3,4-dihydro-2H-benzo[e][1,2]oxaborinine-8-carboxylic acid] | 2 to 4 (≈ 2.51 to 5.02 µM) | < 1 | < 1 | < 10 | < 1 | 4 to 8 (≈ 5.02 to 10 µM) |
| O=C(NCCS(=O)(=O)N1CCN(C(=O)N[C@@H](C(=O)N[C@H]2Cc3ccc(F)c(C(=O)O)c3OB2O)c2cc(F)c(O)c(O)c2Cl)C1=O)Nc1ccncc1 [Example 290, (R)-3-((R)-2-(2-chloro-5-fluoro-3,4-dihydroxyphenyl)-2-(2-oxo-3-((2-(3-(pyridin-4-yl)ureido)ethyl)sulfonyl)imidazolidine-1-carboxamido)acetamido)-7-fluoro-2-hydroxy-3,4-dihydro-2H-benzo[e][1,2]oxaborinine-8-carboxylic acid] | < 1 | < 1 | < 1 | < 10 | < 1 | 16 to 32 (≈ 20.5 to 40.9 µM) |
| O=C(NCCCS(=O)(=O)N1CCN(C(=O)NC(C(=O)N[C@H]2Cc3ccc(F)c(C(=O)O)c3OB2O)c2cc(F)c(O)c(O)c2Cl)C1=O)Nc1ccncc1 (stereo partly drawn) [Example 291, (3R)-3-(2-(2-chloro-5-fluoro-3,4-dihydroxyphenyl)-2-(2-oxo-3-((3-(3-(pyridin-4-yl)ureido)propyl)sulfonyl)imidazolidine-1-carboxamido)acetamido)-7-fluoro-2-hydroxy-3,4-dihydro-2H-benzo[e][1,2]oxaborinine-8-carboxylic acid] | < 1 | < 1 | < 1 | < 10 | < 1 | 16 to 32 (≈ 20.1 to 40.2 µM) |
| O=C(O)c1c(F)ccc2c1OB(O)[C@@H](NC(=O)C(NC(=O)N1CCN(Cc3ccc(O)c(O)c3Cl)C(=O)C1=O)c1cc(F)c(O)c(O)c1Cl)C2 (stereo partly drawn) [Example 292, (3R)-3-(2-(4-(2-chloro-3,4-dihydroxybenzyl)-2,3-dioxopiperazine-1-carboxamido)-2-(2-chloro-5-fluoro-3,4-dihydroxyphenyl)acetamido)-7-fluoro-2-hydroxy-3,4-dihydro-2H-benzo[e][1,2]oxaborinine-8-carboxylic acid] | > 128 | < 1 | < 1 | < 10 | > 128 | > 64 |
| O=C(O)c1c(F)ccc2c1OB(O)[C@@H](NC(=O)C(NC(=O)N1CCN(C3CCN(C(=O)c4cccc(O)c4)CC3)C(=O)C1=O)c1cc(F)c(O)c(O)c1Cl)C2 (stereo partly drawn) [Example 293, (3R)-3-(2-(2-chloro-5-fluoro-3,4-dihydroxyphenyl)-2-(4-(1-(3-hydroxybenzoyl)piperidin-4-yl)-2,3-dioxopiperazine-1-carboxamido)acetamido)-7-fluoro-2-hydroxy-3,4-dihydro-2H-benzo[e][1,2]oxaborinine-8-carboxylic acid] | < 1 | < 1 | < 1 | < 10 | < 1 | 16 to 32 (≈ 20.4 to 40.7 µM) |
| O=C(NCCCN1CCN(C(=O)N[C@@H](C(=O)N[C@H]2Cc3ccc(F)c(C(=O)O)c3OB2O)c2cc(F)c(O)c(O)c2Cl)C(=O)C1=O)c1ccncc1 [Example 294, (R)-3-((R)-2-(2-chloro-5-fluoro-3,4-dihydroxyphenyl)-2-(4-(3-(isonicotinamido)propyl)-2,3-dioxopiperazine-1-carboxamido)acetamido)-7-fluoro-2-hydroxy-3,4-dihydro-2H-benzo[e][1,2]oxaborinine-8-carboxylic acid] | < 1 | < 1 | < 1 | < 10 | < 1 | 16 to 32 (≈ 21.5 to 43 µM) |
| O=C(NCCCN1CCN(C(=O)NC(C(=O)N[C@H]2Cc3ccc(F)c(C(=O)O)c3OB2O)c2cc(F)c(O)c(O)c2Cl)C(=O)C1=O)c1ccncc1Cl (stereo partly drawn) [Example 295, (3R)-3-(2-(2-chloro-5-fluoro-3,4-dihydroxyphenyl)-2-(4-(3-(3-chloroisonicotinamido)propyl)-2,3-dioxopiperazine-1-carboxamido)acetamido)-7-fluoro-2-hydroxy-3,4-dihydro-2H-benzo[e][1,2]oxaborinine-8-carboxylic acid] | < 1 | < 1 | < 1 | < 10 | < 1 | 16 to 32 (≈ 20.5 to 41.1 µM) |
| O=C(NCCCN1CCN(C(=O)N[C@@H](C(=O)N[C@H]2Cc3ccc(F)c(C(=O)O)c3OB2O)c2cc(F)c(O)c(O)c2Cl)C(=O)C1=O)c1ccncc1O [Example 296, (R)-3-((R)-2-(2-chloro-5-fluoro-3,4-dihydroxyphenyl)-2-(4-(3-(3-hydroxyisonicotinamido)propyl)-2,3-dioxopiperazine-1-carboxamido)acetamido)-7-fluoro-2-hydroxy-3,4-dihydro-2H-benzo[e][1,2]oxaborinine-8-carboxylic acid] | 2 to 4 (≈ 2.63 to 5.26 µM) | < 1 | < 1 | < 10 | < 1 | 16 to 32 (≈ 21 to 42.1 µM) |
| Cc1cnccc1C(=O)NCCCN1CCN(C(=O)NC(C(=O)N[C@H]2Cc3ccc(F)c(C(=O)O)c3OB2O)c2cc(F)c(O)c(O)c2Cl)C(=O)C1=O (stereo partly drawn) [Example 297, (3R)-3-(2-(2-chloro-5-fluoro-3,4-dihydroxyphenyl)-2-(4-(3-(3-methylisonicotinamido)propyl)-2,3-dioxopiperazine-1-carboxamido)acetamido)-7-fluoro-2-hydroxy-3,4-dihydro-2H-benzo[e][1,2]oxaborinine-8-carboxylic acid] | < 1 | < 1 | < 1 | < 10 | < 1 | 16 to 32 (≈ 21.1 to 42.2 µM) |
| Cc1cc(C(=O)NCCCN2CCN(C(=O)N[C@@H](C(=O)N[C@H]3Cc4ccc(F)c(C(=O)O)c4OB3O)c3cc(F)c(O)c(O)c3Cl)C(=O)C2=O)ccn1 [Example 298, (R)-3-((R)-2-(2-chloro-5-fluoro-3,4-dihydroxyphenyl)-2-(4-(3-(2-methylisonicotinamido)propyl)-2,3-dioxopiperazine-1-carboxamido)acetamido)-7-fluoro-2-hydroxy-3,4-dihydro-2H-benzo[e][1,2]oxaborinine-8-carboxylic acid] | < 1 | < 1 | < 1 | < 10 | < 1 | 16 to 32 (≈ 21.1 to 42.2 µM) |
| O=C(NCCCN1CCN(C(=O)N[C@H](C(=O)N[C@H]2Cc3ccc(F)c(C(=O)O)c3OB2O)c2cc(F)c(O)c(O)c2Cl)C(=O)C1=O)c1ccnc(F)c1F [Example 299, (R)-3-((S)-2-(2-chloro-5-fluoro-3,4-dihydroxyphenyl)-2-(4-(3-(2,3-difluoroisonicotinamido)propyl)-2,3-dioxopiperazine-1-carboxamido)acetamido)-7-fluoro-2-hydroxy-3,4-dihydro-2H-benzo[e][1,2]oxaborinine-8-carboxylic acid] | > 128 | < 1 | < 1 | 10 to 50 | 2 to 4 (≈ 2.56 to 5.12 µM) | > 64 |
